According to PubChem BioAssay (NCI):
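Where inhibition never reached the appropriate level, the endpoint shown equals the highest concentration tested. Otherwise, values were interpolated linearly from a five-concentration, 48-hour dose response in 96-well plates. Definition used: TGI = concentration required for complete inhibition of growth.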

Legend:
Assay in all cases: NCI tumour cell line growth inhibition, 48 h
[1] = tested on: ACHN renal
[2] = tested on: CAKI-1 renal
[3] = tested on: HT29 colon
[4] = tested on: MDA-MB-435
[5] = tested on: NCI-H23 lung
[6] = tested on: NCI-H460 lung
[7] = tested on: OVCAR-5 ovarian
[8] = tested on: SF-268 CNS
[9] = tested on: SN12C renal
[10] = tested on: TK-10 renal

SMILES	TGI [1]	TGI [2]	TGI [3]	TGI [4]	TGI [5]	TGI [6]	TGI [7]	TGI [8]	TGI [9]	TGI [10]
C=C(C1=CC(=O)C(C)(C)O1)[C@@H]1CC=C([C@@H]2CC[C@H]3[C@@]2(C)CC[C@H]2C(C)(C)C(=O)[C@H](O)C[C@]32C)[C@H](O)O1	3.04 µM	14.2 µM	3.48 µM	8.04 µM	12.6 µM	31.6 µM	28 µM	3.76 µM	5.18 µM	2.64 µM
O=C(Cc1cccs1)N[C@@H]1C(=O)N2C(C(=O)OC(c3ccccc3)c3ccccc3)=C(CO)CS[C@H]12	> 100 µM	> 100 µM	–	> 100 µM	> 100 µM	> 100 µM	> 100 µM	–	> 100 µM	> 100 µM
COc1ccc(/C=C2\CCC(C)C3=C2NC(=S)NC3c2ccc(OC)c(OC)c2)cc1OC (stereo unspecified)	> 31.6 µM	> 31.6 µM	> 100 µM	> 31.6 µM	–	> 100 µM	> 31.6 µM	> 31.6 µM	> 31.6 µM	> 31.6 µM
N#CC1=C(N)N(c2ccccc2)C(c2ccco2)C1(C#N)C#N (stereo unspecified)	32 µM	> 100 µM	37.1 µM	71.8 µM	38.9 µM	–	48.4 µM	> 100 µM	> 100 µM	31.5 µM
CC[C@@]1(O)C(=O)OCc2c1cc1n(c2=O)Cc2c-1nc1ccccc1c2/C=N\NC(=O)CN	–	–	> 49.7 µM	41.5 µM	1.04 µM	4.66 µM	> 100 µM	16.7 µM	> 100 µM	> 100 µM
O=C1C(=Cc2ccc(O)cc2)N=C(c2ccccc2)N1n1c(-c2ccccc2)nc2ccccc2c1=O	–	> 100 µM	> 100 µM	> 100 µM	> 100 µM	–	–	> 100 µM	–	> 100 µM
COc1ccc2c(=O)c(O)c(-c3ccc(OC)c(OC)c3)oc2c1	> 100 µM	13 µM	> 100 µM	> 100 µM	–	> 100 µM	> 100 µM	> 100 µM	–	45.8 µM
C[n+]1c2ccccc2c(/C=N\NS(=O)(=O)c2ccc(O)c(C(=O)O)c2)c2ccccc21	> 100 µM	> 100 µM	> 100 µM	–	> 100 µM	> 100 µM	> 100 µM	> 100 µM	> 100 µM	> 100 µM
CNC(=O)C(C)C1CCC2(C)C=CC(=O)C(C)=C2C1O (stereo unspecified)	–	91.7 µM	> 100 µM	–	> 100 µM	> 100 µM	> 100 µM	> 100 µM	> 100 µM	–
COc1ccc(C(OCC2OC(n3cc(C)c(=O)[nH]c3=O)CC2n2cc(Cn3cc(I)c(=O)[nH]c3=O)nn2)(c2ccccc2)c2ccccc2)cc1 (stereo unspecified)	> 100 µM	> 100 µM	> 100 µM	> 100 µM	> 100 µM	–	> 100 µM	> 100 µM	> 100 µM	> 100 µM
O=C1c2ccccc2C2C1N2C(=O)C(F)(F)F (stereo unspecified)	> 100 µM	> 100 µM	> 100 µM	–	> 100 µM	> 100 µM	> 100 µM	> 100 µM	> 100 µM	> 100 µM
CCN(CC)CCC(=O)Nc1ccc2c(c1)C(=O)c1ccc(NC(=O)CCN(CC)CC)cc1C2=O	16.3 µM	14.7 µM	12.5 µM	–	23.2 µM	2.74 µM	25.1 µM	18.9 µM	13.4 µM	18.9 µM
CC(N)Cc1ccc(C(=O)Cl)cc1 (stereo unspecified)	> 100 µM	> 100 µM	> 100 µM	–	> 100 µM	> 100 µM	–	> 100 µM	> 100 µM	> 100 µM
CCNC(=S)N/N=C/c1cc([N+](=O)[O-])ccc1O	> 100 µM	–	> 100 µM	> 100 µM	> 100 µM	> 100 µM	> 100 µM	> 100 µM	> 100 µM	79.8 µM
O=C1OCC(O)=C1C(c1ccc(Cl)cc1)c1cc2c(cc1O)OCO2 (stereo unspecified)	> 100 µM	> 100 µM	> 100 µM	> 100 µM	–	> 100 µM	> 100 µM	> 100 µM	> 100 µM	> 100 µM
Cc1ccsc1/C=N/Nc1ncccn1	> 100 µM	> 100 µM	> 100 µM	> 100 µM	> 100 µM	–	> 100 µM	> 100 µM	> 100 µM	> 100 µM
O=C1CCC23CC(C=CC=C12)n1c(=O)n(-c2ccccc2)c(=O)n13 (stereo unspecified)	–	> 83.4 µM	> 100 µM	–	> 100 µM	> 100 µM	> 100 µM	> 100 µM	> 100 µM	–
Cc1ccc(SCC(CSCCO)OCn2cnc3c2NC(N)=NC32OCCO2)cc1 (stereo unspecified)	> 100 µM	> 100 µM	> 100 µM	> 100 µM	> 100 µM	> 100 µM	> 100 µM	> 100 µM	–	> 100 µM
Cc1cn(C2CC(n3cc(Cn4cc(I)c(=O)[nH]c4=O)nn3)C(CO)O2)c(=O)[nH]c1=O (stereo unspecified)	> 100 µM	> 100 µM	–	> 100 µM	> 100 µM	–	> 100 µM	> 100 µM	> 100 µM	> 100 µM
CNC(=O)OCC1=C(COC(=O)NC)C(C)N(c2ccc(OC)cc2)C1 (stereo unspecified)	> 100 µM	–	> 100 µM	> 100 µM	> 100 µM	> 100 µM	> 100 µM	> 100 µM	> 100 µM	73 µM
O=C(Nc1ccc(C2=NCCN2)cc1)c1cncc(C(=O)Nc2ccc(C3=NCCN3)cc2)c1	–	> 100 µM	> 100 µM	–	> 100 µM	> 100 µM	> 100 µM	> 31.6 µM	> 100 µM	–
[N-]=[N+]=Nc1cc(=O)oc2ccccc12	> 100 µM	> 100 µM	> 100 µM	–	> 100 µM	> 100 µM	> 100 µM	> 100 µM	> 100 µM	> 100 µM
CCC12C=CCN3CCC4(C(=C(C(=O)OC)[C@@H]1O)Nc1ccccc14)C32 (stereo partly specified)	3.3 µM	7.18 µM	3.76 µM	–	3.72 µM	3.71 µM	4.67 µM	6.76 µM	5.71 µM	5.37 µM

SMILES	TGI [1]	TGI [2]	TGI [3]	TGI [4]	TGI [5]	TGI [6]	TGI [7]	TGI [8]	TGI [9]	TGI [10]
CCC1(O)CC2CC(=O)OC2C1O (stereo unspecified)	> 100 µM	> 100 µM	> 100 µM	> 100 µM	> 100 µM	> 100 µM	> 100 µM	> 100 µM	–	> 100 µM
Cc1cccc2c(=O)cc(-c3ccccc3)[nH]c12	> 100 µM	–	> 100 µM	–	> 100 µM	> 100 µM	–	> 100 µM	> 100 µM	> 100 µM
CC1=C(C)[C@@]2(C)O[C@@]2(C)O[C@@]2(C)O[C@@]12C	> 100 µM	> 100 µM	> 100 µM	> 100 µM	> 100 µM	–	> 100 µM	> 100 µM	> 100 µM	> 100 µM
CC[C@@]1(C[C@H]2C[C@@]3(C(=O)OC)c4[nH]c5ccccc5c4CCN3C2=O)COC2(CCCCC2)O1	> 100 µM	> 100 µM	> 100 µM	–	> 100 µM	> 100 µM	> 100 µM	> 100 µM	> 100 µM	> 100 µM
CCOc1cc2c(cc1O)/C(=N\OC)C[C@@H]1[C@@H]2CC[C@]2(C)[C@@H](O)CC[C@@H]12	> 100 µM	> 23.4 µM	15.3 µM	–	> 39.2 µM	37.3 µM	> 100 µM	> 43.3 µM	48.1 µM	> 100 µM
CC(C)/C(Cl)=N\OC(=O)Nc1ccc(S(N)(=O)=O)cc1	26.8 µM	31.1 µM	48.4 µM	–	37.8 µM	41.6 µM	33.8 µM	51.7 µM	29.2 µM	31.8 µM
Clc1cc(OC2C3CC4CC(C3)CC2C4)nc(Cl)n1 (stereo unspecified)	32.8 µM	–	30.5 µM	37.9 µM	31 µM	31.6 µM	44.2 µM	49.1 µM	31 µM	> 100 µM
CC(=O)Nc1ccc(-c2nnc(SCC(=O)Nc3ccc([N+](=O)[O-])cc3)o2)cc1	28.7 µM	27.5 µM	27.3 µM	–	25 µM	29.1 µM	36 µM	27.7 µM	29.8 µM	27.9 µM
COc1ccc(CNc2nc(NCc3ccc(OC)c(OC)c3)nc(NC3CCCCC3)n2)cc1	> 100 µM	> 100 µM	> 100 µM	> 100 µM	52.2 µM	> 100 µM	> 100 µM	–	> 100 µM	> 100 µM
CCCCCCCCCCCOc1ccc(C(=O)C(=O)c2ccc(OCCCCCCCCCCC)c(OCCCCCCCCCCC)c2)cc1OCCCCCCCCCCC	> 100 µM	> 100 µM	> 100 µM	–	> 100 µM	> 100 µM	> 100 µM	> 100 µM	> 100 µM	> 100 µM
COC(=O)[C@H](Cc1c[nH]c2ccccc12)NP(=O)(O)OCC1C=CC(n2cc(C)c(=O)[nH]c2=O)O1 (stereo partly specified)	–	> 100 µM	> 100 µM	> 100 µM	> 100 µM	–	–	> 100 µM	> 100 µM	–
CC(C)C1/C(=N/O)CC(c2ccccc2)N(N=O)C1c1ccccc1 (stereo unspecified)	> 100 µM	89.7 µM	39 µM	72.4 µM	> 100 µM	67.5 µM	–	> 100 µM	> 100 µM	> 100 µM
NC(=O)C(c1ccccc1)N1OC2C(=O)N(c3ccccc3)C(=O)C2C1c1c2ccccc2c(Cl)c2ccccc12 (stereo unspecified)	> 100 µM	> 100 µM	> 100 µM	> 100 µM	> 100 µM	–	> 100 µM	> 100 µM	> 100 µM	–
COC(=O)[C@H]1CO[C@@H](C(C)(C)C)N1C(=O)N1C=CC(=O)C[C@@H]1C	> 100 µM	> 100 µM	> 100 µM	> 100 µM	> 100 µM	–	> 100 µM	> 100 µM	> 100 µM	> 100 µM
Cc1cn(C2CC(N(O)C(N)=O)C(CO)O2)c(=O)[nH]c1=O (stereo unspecified)	> 100 µM	> 100 µM	> 100 µM	> 100 µM	> 100 µM	–	> 100 µM	> 100 µM	> 100 µM	> 100 µM
COc1cc([C@@H]2OCC3C(c4ccc5c(c4)OCO5)OCC32)cc(OC)c1OC (stereo partly specified)	> 100 µM	> 100 µM	> 100 µM	–	> 100 µM	> 100 µM	> 100 µM	> 100 µM	> 100 µM	–
COc1cc([C@@H]2c3cc4c(cc3[C@@H](Nc3ccc([N+](=O)[O-])cc3C(=O)c3ccccc3)[C@H]3COC(=O)[C@H]23)OCO4)cc(OC)c1OC	> 100 µM	> 100 µM	> 100 µM	0.319 µM	> 28.6 µM	–	> 100 µM	> 100 µM	> 100 µM	> 100 µM
c1ccc(N=C2SC3=Nc4cccc5cccc(c45)N3C2=Nc2ccccc2)cc1	–	> 100 µM	> 100 µM	> 100 µM	> 100 µM	> 100 µM	> 100 µM	–	> 100 µM	–
CCC[C@@H](O)C[C@@H]1CCC[C@H](C[C@@H](O)CC)N1C	> 100 µM	> 100 µM	> 100 µM	> 100 µM	> 100 µM	–	> 100 µM	45.1 µM	> 100 µM	> 100 µM
CNS(=O)(=O)NNS(=O)(=O)c1ccc2ccccc2c1	> 100 µM	> 100 µM	> 100 µM	–	> 100 µM	> 100 µM	> 100 µM	> 100 µM	> 100 µM	> 100 µM
CC1C=C(CCCCCCCCCCCC[C@@H](O)[C@@H]2CC[C@@H]([C@@H]3CC[C@@H](C(O)CCCCCCCCCCCCC4=C[C@H](C)OC4=O)O3)O2)C(=O)O1 (stereo partly specified)	> 100 µM	> 100 µM	> 100 µM	–	> 100 µM	> 100 µM	> 100 µM	> 100 µM	> 100 µM	> 100 µM
N#CN=C(N(Cc1ccccc1)Cc1ccccc1)N(Cc1ccccc1)Cc1ccccc1	> 100 µM	> 100 µM	> 100 µM	–	–	> 100 µM	> 100 µM	> 100 µM	> 100 µM	–
